Entries after “also recorded” stand apart in the source; their conditions may differ.
How the values were obtained:
[1] = tested on: C6 Rat-Glioma grown as cancer stem cells spheres; experiment: AlamarBlue cell proliferation assay after radiosensitizer and irradiation, C6 cancer stem cell spheres; format: cell-based; settings: 0.1 μM; irradiation 10 Gy; 5 days post irradiation; FIG. 3B, P<0.049
Experimental: (§1) Rat glioma cell line: C6 (ATCC number: CCL107)
To obtain tumor stem cells, cells were cultured in stem cell conditioned media. Briefly, breast and glioma cancer cells were cultured in serum-free DMEM media containing […] bovine insulin, 100 μg/ml human transferrin, 100 μg/ml BSA, 60 ng/ml progesterone, 16 μg/ml putrescine, 40 μg/ml sodium selenite, 63 μg/ml N-acetylcysteine, 5 μM forskolin, 50 units/ml penicillin, and 50 μg/ml streptomycin, 10 ng/ml bFGF, and 10 ng/ml PDGF. In all experiments, cells were maintained in 100 mm or 96 well plate culture dishes at 37° C. in a humidified […] and were protected from light.
Three hypericin derivatives were used in the assay, including hypericin tetrasulfonic acid (HyTS); Tetrabromo hypericin (TBrHy); and Hexamethyl hypericin (HxMeHy). […]
In all cases, control and tumor cells were exposed to ionizing radiation (Siemens X-ray device with 250 kV or with LINAC) at 24 h after the incubation with Hyperecin, Photofrin II or Hypericin derivatives indicated below. […] The response of the tumor to the radiation treatment was evaluated by determining growth delay using the described cell proliferation assay. […]
(§2) Unless indicated otherwise, the tumor cell lines were cultured at a starting density of 1×10^5 cells/mL in DMEM and 10% FCS. […] Absorbance was measured at 570 nm and 600 nm using a micro-titer plate reader. […]

[2] = tested on: Dayo-human Glioma tumor; experiment: AlamarBlue cell proliferation assay after radiosensitizer and irradiation, Dayo; format: cell-based; settings: 0.1 μM; FIG. 4B, P<0.01
Experimental: Human glioma cell lines: Daoy (ATCC number: HTB-186) and
(§3) Human colorectal cancer cell line: HT-29 (ATCC number: HTB-38). All cells were cultured routinely in DMEM supplemented with 10% FCS.
(§4) Three hypericin derivatives were used in the assay, including hypericin tetrasulfonic acid (HyTS); Tetrabromo hypericin (TBrHy); and Hexamethyl hypericin (HxMeHy). In addition, as control, hypericin and/or Photofrin II as well as cells exposed only to radiation, i.e. without a radiosensitizing agent.
(§5) The hypericin, hypericin derivatives and photofrin II were used in doses ranging from 0.1 μM up to 2 μM. All compounds were dissolved in DMSO, and were protected from light.
(§6) In all cases, control and tumor cells were exposed to ionizing radiation (Siemens X-ray device with 250 kV or with LINAC) at 24 h after the incubation with Hyperecin, Photofrin II or Hypericin derivatives indicated below. The total delivered radiation dose was a 10 Gy, provided in a single irradiation session on the second day of culture. The response of the tumor to the radiation treatment was evaluated by determining growth delay using the described cell proliferation assay.
(§7) Cell proliferation assay using AlamarBlue
as §2

[3] = tested on: C6 Rat-Glioma grown in monolayer; experiment: AlamarBlue cell proliferation assay after radiosensitizer and irradiation, C6 monolayer; format: cell-based; settings: 0.1 μM
Experimental: The following cell lines were originally obtained from the American Type Culture collection (ATTC):
as §1, §3, §4, §5
In all cases, control and tumor cells were exposed to ionizing radiation (Siemens X-ray device with 250 kV or with LINAC) at 24 h after the incubation with Hyperecin, Photofrin II or Hypericin derivatives indicated below. […] The response of the tumor to the radiation treatment was evaluated by determining growth delay using the described cell proliferation assay.
as §7, §2

[4] = brain sections of treated mice, fluorescence 550-650 nm
[5] = Treatment toxicity: body weight and overall behaviour (Example 4A); format: in vivo, nude mice; settings: 10 mg/kg; for tolerability of treatment: alone or in combination with radiation, nude mice; for change in mice body weight and mice behaviour: measured twice weekly
Experimental: (§8) Mice injected with 5% DMSO vehicle served as the control untreated group. Immediately after the injections, the mice were placed in the dark. For each group of radiosensitizing agent treated mice, half of the treated mice were then treated with a 10 Gy dose of radiation, initiated two hours after the administration of the radiosensitizing agents.
Treatment toxicity was evaluated using two parameters, (i) measuring mice's body weight and (ii) monitoring overall mice behaviour, both parameters were measured twice weekly.

[6] = tested on: HT29-colon cancer grown in monolayer; experiment: Example 2B AlamarBlue proliferation, HT29 linear cells; format: cell-based, human; settings: 0.1-2 μM; single dose 10 Gy; FIG. 6A
Experimental: (§9) Linear cell (Lin) HT29 and MCF7 human breast carcinoma, were obtained from the American Type Culture Collection (ATCC).
(§10) Cells were cultured in Dulbecco's Modified Eagle Medium (DMEM), supplemented with 10% fetal calf serum (FCS) and antibiotics.
(§11) Three photosensitizing agents were used, Hypericin (Hy), Tetrabromo hypericin (TBrHy), and hypericin tetrasulfonic acid (HyTS) in the following concentrations: 0.1 μM, 1 μM and 2 μM. Drugs were protected from light for all time. Control cells were treated with 0.1% DMSO (vehicle).
(§12) Linear and CSC were exposed to 3 Gy irradiation daily for four consecutive days or to a single dose of 10 Gy radiation. Radiation was initiated one day after treatment with the hypericin or hypericin derivatives.
(§13) Linear and CSCs were cultured in a 96 plate in triplicates. Each cell line was treated with the three radiosensitizing agents in the indicated doses. In addition culture cells were exposure to radiation. A day before the irradiation, the radiosensitizing agents were added to the culture. Cells were allowed to grow over a period of 5 days using the method of AlamarBlue™ reduction assay. 10% Alamar Blue solution added to each well. Cells viability was measured using Eliza Reader at two different wavelengths: 570 nm and 600 nm, and the appropriate equation was calculated to reflect cell viability.

[7] = tested on: MCF-7 human breast carcinoma; experiment: AlamarBlue cell proliferation assay after radiosensitizer and irradiation, MCF-7 monolayer; format: cell-based; settings: 1 μM
Experimental: (§14) Human breast carcinoma: MCF-7 (ATCC number: HTB-22); MDA-MB-231 (ATCC number: HTB-26)
as §3, §4, §5
as §6, with “assay. […]” for “assay.”
as §2

[8] = tested on: U87 Tumors; settings: wavelength of 665 nm; with or without radiation
Experimental: U87 Tumors were resected when tumors reached end-point (1500 mm^3), minced, and digested in 4 mg/ml collagenase III, 2 mg/ml hyaluronidase, and 2 mg/ml collagenase IV in serum free DMEM, for 20 min, at 37° C. Cells were then filtered through a 40 μm sieve, and washed twice with PBS to obtain single U87 cell suspension.
The single U87 tumor cell suspensions were then acquired on Cyan ADP flow cytometer (Beckman Coulter) and analyzed with Summit (Beckman Coulter) software.
The FL8 channel, (wavelength of 655/20 nm) was used to detect differences between positive and negative cells. From each sample, at least 50,000 cells were acquired.
(§15) These studies were aimed at assessing the localization of radiosensitizing agents and were conducted by two complementary techniques; the first in implanted U87 human glioma tumors using UV lamp and the second in extracted U87 tumors using Flow Cytometry techniques.

[9] = tested on: MCF-7 human breast carcinoma grown as monolayer; experiment: Example 2B AlamarBlue proliferation, MCF7 linear cells; format: cell-based; settings: 0.1-2 μM; single dose 10 Gy; FIG. 6C
Experimental: as §9, §10, §11, §12, §13

[10] = tested on: HT29-colon cancer grown as cancer stem cells spheres; experiment: Example 2B AlamarBlue proliferation, HT29 cancer stem cells; format: cell-based, human; settings: 0.1-2 μM; single dose 10 Gy; FIG. 6B; compared with monolayer
Experimental: as §9
(§16) Enrichment of the cancer stem cells (CSCs) population was done by incubating linear cells in a DMEM/F-12 (HAM) 1:1 medium supplement with Insulin-Transferin-Soldium Selenite, and growth factors specific for each cell line. Cells considered enriched for CSCs after 10-15 days in CSCs medium.
as §11, §12
as §13, with “Cells were allowed to grow over a period of 5 days using the method of AlamarBlue™ reduction assay. 10% Alamar Blue solution added to each well.” left out

[11] = tested on: PANC01 human pancreatic adenocarcinoma cells; experiment: PANC01 human pancreatic adenocarcinoma tumors in CB.17 SCID mice, tumor volume (Example 4C); format: in vivo; settings: 10 mg/kg + 10 Gy radiation; for tumor volume of PANC1 pancreatic tumors, agent with radiation: CB.17 SCID mice, FIG. 8B
Experimental: Mice were injected with the radiosensitizing agent, and immediately after were placed in the dark. Radiation was conducted 2 hours after radiosensitizing administration. […] Tumor volume was measured prior to the treatment and thereafter twice weekly.

[12] = tested on: HT29-human colon carcinoma; experiment: AlamarBlue cell proliferation assay after radiosensitizer and irradiation, HT29; format: cell-based; settings: FIG. 4E, P<0.05
Experimental: as §3, §4, §5, §6, §7, §2

[13] = tested on: MCF-7 human breast carcinoma grown as cancer stem cells spheres; experiment: Example 2B AlamarBlue proliferation, MCF7 cancer stem cells; format: cell-based; settings: for inhibiting proliferation of MCF7 human breast cancer cells grown as stem cells: 0.1-2 μM, single dose 10 Gy, FIG. 6D; for effect in MCF7 cancer stem cells compared with monolayer: FIGS. 6C and 6D
Experimental: as §9, §16, §11, §12, §13

[14] = tested on: U87 human glioma tumors; settings: 10 mg/kg + 10 Gy radiation; CB.17 SCID mice; FIG. 8A
Experimental: U87 human glioma cells at a concentration of 5×10^6 were implanted into the flank of eight to ten weeks old CB.17 SCID mice (n=4-5 mice per group).
Treatment was initiated when the tumors reached a size of 100-150 mm^3, and included the following treatment groups:
Specifically, mice were injected with the radiosensitizing agent, and immediately placed in the dark. Radiation was initiated two hours after radiosensitizing administration. Mice were kept in the dark for the following 72 hours, in order to minimize the effect of light on the traces of the radiosensitizing agents. Tumor volume was monitored prior to treatment and thereafter twice weekly.

[15] = tested on: MD-MB-231-human breast carcinoma; experiment: AlamarBlue cell proliferation assay after radiosensitizer and irradiation, MDA-MB-231; format: cell-based; settings: 1 μM; FIG. 4C, P<0.05
Experimental: as §14, §3, §4, §5
as §6, with “assay. […]” for “assay.”
as §2

[16] = tested on: U87 Tumors; settings: during the 2 hours prior to radiation
Experimental: U87 Tumors were implanted subcutaneously in nude mice and then examined under a UV light lamp and the colour intensity was visualized.
as §15

[17] = tested on: U87 human glioma tumors; experiment: U87 human glioma tumors implanted in nude mice, tumor growth (Example 4A); format: in vivo; settings: 10 mg/kg + 10 Gy radiation
Experimental: as §8
Overall, eight groups of treatment were evaluated as follows:
Tumor growth was evaluated by measuring the tumor's volume twice weekly.

SMILES | BBB penetration [4] | tolerability of treatment [5] | change in mice body weight and mice behaviour [5] | fluorescent signal of tumor cells by flow cytometry [8] | inhibiting proliferation of MCF7 human breast cancer cells grown as monolayer [9] | tumor volume of PANC1 pancreatic tumors, agent with radiation [11] | inhibiting proliferation of MCF7 human breast cancer cells grown as stem cells [13] | effect in MCF7 cancer stem cells compared with monolayer [13] | colour of tumors under UV light [16] | other results
COc1cc(C)c2c3c(C)cc(OC)c4c(=O)c5c(OC)cc(OC)c6c7c(OC)cc(OC)c8c(=O)c1c2c(c87)c(c43)c56 [HxMeHy, Hexamethyl hypericin] | – | – | – | – | – | – | – | – | – | proliferation of C6 glioma cells grown as CSCs (AlamarBlue, fold increase) [1]: statistically inhibited the proliferation; radiosensitizing effect on Dayo tumor (proliferation on day 5) [2]: effective radiosensitizing agent; radiosensitizing effect on C6 brain cancer (proliferation on day 5) ([3]; FIG. 4A): effective radiosensitizing agent; proliferation of C6 glioma cells in monolayer (AlamarBlue, fold increase) ([3]; irradiation 10 Gy, 5 days post irradiation, FIG. 3A, P<0.05): statistically inhibited the proliferation
Cc1c(S(=O)(=O)O)c(O)c2c(=O)c3c(O)c(S(=O)(=O)O)c(O)c4c5c(O)c(S(=O)(=O)O)c(O)c6c(=O)c7c(O)c(S(=O)(=O)O)c(C)c8c1c2c(c34)c(c78)c65 [HyTS, hypericin tetrasulfonic acid] | does not penetrate the BBB | well tolerated | no significant change | fluorescent signal was detected | effective in inhibiting the proliferation | anti-tumor activity | effective in inhibiting the proliferation | more pronounced | colored in red | radiosensitizing HT-29 colon cancer cells (monolayer) [6]: effective in radiosensitizing; radiosensitizing effect on breast cancer MCF-7 (proliferation on day 5) ([7]; FIG. 4D, P<0.01): statistically significantly effective; proliferation of MCF-7 breast cancer cells grown as monolayer (AlamarBlue, fold increase) ([7]; irradiation 10 Gy, 5 days post radiation, FIG. 3C, P<0.03): statistically inhibited the proliferation; sensitivity of HT-29 colon cancer stem cells to treatment [10]: more sensitive; anti-tumor activity in PANC1 pancreatic tumors compared with U87 [11]: somewhat better activity; radiosensitizing effect on colon cancer HT29 (proliferation on day 5) ([12]; 1 μM): effective radiosensitizing agents; tumor volume of U87 tumors, agent with radiation [14]: anti-tumor activity; radiosensitizing effect on breast cancer MD-MB-231 (proliferation on day 5) [15]: statistically significantly effective
Cc1c(Br)c(O)c2c(=O)c3c(O)c(Br)c(O)c4c5c(O)c(Br)c(O)c6c(=O)c7c(O)c(Br)c(C)c8c1c2c(c34)c(c78)c65 [TBrHy, Tetrabromo hypericin] | penetrated the BBB | well tolerated | no significant change | fluorescent signal was detected | effective in inhibiting the proliferation | most potent radiosensitizing agent; also recorded: enhanced anti-tumor activity | effective in inhibiting the proliferation | more pronounced | colored in red | tumor growth of U87 tumors, agent combined with radiotherapy ([17]; nude mice, FIG. 7): most effective radiosensitizing agent; also recorded: better anti-tumor activity; tumor removal in one mouse ([17]; one mouse, 4 days after treatment): completely removed; radiosensitizing effect on colon cancer HT29 (proliferation on day 5) ([12]; 0.1 μM): effective radiosensitizing agents

From US20130267757A1, “ANTH[…] USE AS RADIOS[…] CANCER TREATMENT” (Sensit Science Ltd., priority 2010, published 2013)
